What was measured:
[1] = system: SAGPY (Arrowhead (Pygmaea)); experiment: Preemergence weed control under flooded paddy conditions; type: in vivo, Sagittaria pygmaea; details: rated 3-4 weeks after treatment
Summary of the method: (§1)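 Seeds or propagules sown in silt loam kept flooded 1.5-3 cm; compounds in 50/50 acetone/water pipetted into flood water at about 0.0313 to 0.500 kg/ha. Greenhouse; visual 0-9 rating versus untreated control 3-4 weeks after treatment.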

[2] = system: CHEAL (Lambsquarters, Common); experiment: Postemergence herbicidal evaluation; type: in vivo, Chenopodium album
Summary of the method: (§2)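 First, seedlings were raised for around two weeks. Next, test material in 50/50 acetone/water containing 0.5% TWEEN 20 was sprayed through a nozzle at 40 psi, equivalent to about 0.0156–0.500 kg/ha. Finally, after 4–5 weeks in the greenhouse, plants were rated 0–9.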

ORYSAT (Rice, Tebonnet) = experiment: Postemergence herbicidal evaluation; type: in vivo, Oryza sativa, (L.) Tebonnet
Summary of the method: as §2

CASOB (Sicklepod) [3] = experiment: Postemergence herbicidal evaluation; type: in vivo, Cassia obtusifolia
Summary of the method: as §2

GALAP (Galium) [4] = experiment: Postemergence herbicidal evaluation; type: in vivo, Galium aparine
Summary of the method: as §2

SETVI (Foxtail, Green) = experiment: Postemergence herbicidal evaluation; type: in vivo, Setaria viridis
Summary of the method: as §2

GALAP (Galium) [5] = experiment: Preemergence herbicidal evaluation; type: in vivo, Galium aparine; details: rated 4-5 weeks after treatment
Summary of the method: (§3)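 Visual 0-9 rating vs control (stand, vigor, malformation, size, chlorosis, overall appearance), scored 4-5 wk after spraying. Seeded soil cups were treated preemergence with compound in aqueous acetone, ~0.0156-0.500 kg/ha equivalent.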

CYPIR (Rice Flatsedge) = experiment: Preemergence weed control under flooded paddy conditions; type: in vivo, Cyperus iria; details: rated 3-4 weeks after treatment
Summary of the method: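 Ratings on a 0-9 visual scale cover stand, vigor, malformation, size, chlorosis and overall appearance relative to a control, taken three to four weeks post-treatment. Application was into flood water over freshly sown silt loam at roughly 0.0313 to 0.500 kg/ha.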

ECHCG (Barnyardgrass) = experiment: Postemergence herbicidal evaluation; type: in vivo, Echinochloa crus-galli
Summary of the method: as §2

AMBEL (Ragweed, Common) = experiment: Postemergence herbicidal evaluation; type: in vivo, Ambrosia artemisifolia
Summary of the method: as §2

[6] = system: GLXMAW (Soybean, Williams); experiment: Postemergence herbicidal evaluation; type: in vivo, Glycine max, (L.) Merr. cv Williams
Summary of the method: as §2

CYPSE (Flatsedge) [7] = experiment: Postemergence weed control under flooded paddy conditions; type: in vivo, Cyperus serotinus; details: postemergence weeds, 3-4 weeks after treatment
Summary of the method: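 Herbicidal effect is judged by eye on a 0–9 scale versus control, 3–4 weeks after dosing. Dosing is into flood water kept 1.5–3 cm over the soil, at about 0.0313–0.500 kg/ha in aqueous/acetone 50/50 v/v, on 3–5 cm weeds and 1.5–2.5-leaf rice seedlings.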

CYPSE (Flatsedge) [8] = experiment: Preemergence weed control under flooded paddy conditions; type: in vivo, Cyperus serotinus; details: rated 3-4 weeks after treatment
Summary of the method: as §1

CASOB (Sicklepod) [9] = experiment: Preemergence herbicidal evaluation; type: in vivo, Cassia obtusifolia; details: rated 4-5 weeks after treatment
Summary of the method: as §3

ZEAMX (Corn, Field) = experiment: Preemergence herbicidal evaluation; type: in vivo, Zea mays; details: rated 4-5 weeks after treatment
Summary of the method: as §3

Cn1c(C(F)(F)F)cc(=O)n(-c2cc(N=C3NC(=O)CS3)c(Cl)cc2F)c1=O [Compound 39, 3-{4-Chloro-2-fluoro-5-[(4-oxo-2-thiazolidinylidene)amino]phenyl}-1-methyl-6-(trifluoromethyl)-2,4(1H,3H)-pyrimidinedione]
Herbicidal rating SAGPY ([1]; 0.0313 kg/ha): 0.0 | Herbicidal rating SAGPY ([1]; 0.0625 kg/ha): 0.0 | Herbicidal rating SAGPY ([1]; 0.1250 kg/ha): 0.0 | Herbicidal rating SAGPY ([1]; 0.2500 kg/ha): 4.0 | Postemergence herbicidal rating CHEAL ([2]; Rate 0.0158 kg/ha): 1.0 | Postemergence herbicidal rating CHEAL ([2]; Rate 0.0315 kg/ha): 1.0 | Postemergence herbicidal rating CHEAL ([2]; Rate 0.0630 kg/ha): 1.0 | Postemergence herbicidal rating ORYSAT (ORYSAT (Rice, Tebonnet); Rate 0.0158 kg/ha): 1.5 | Postemergence herbicidal rating ORYSAT (ORYSAT (Rice, Tebonnet); Rate 0.0315 kg/ha): 1.5 | Postemergence herbicidal rating ORYSAT (ORYSAT (Rice, Tebonnet); Rate 0.0630 kg/ha): 2.0 | Postemergence herbicidal rating CASOB (CASOB (Sicklepod) [3]; Rate 0.0158 kg/ha): 0.0 | Postemergence herbicidal rating CASOB (CASOB (Sicklepod) [3]; Rate 0.0315 kg/ha): 0.0 | Postemergence herbicidal rating CASOB (CASOB (Sicklepod) [3]; Rate 0.0630 kg/ha): 0.0 | Postemergence herbicidal rating GALAP (GALAP (Galium) [4]; Rate 0.0158 kg/ha): 0.0 | Postemergence herbicidal rating GALAP (GALAP (Galium) [4]; Rate 0.0315 kg/ha): 0.0 | Postemergence herbicidal rating GALAP (GALAP (Galium) [4]; Rate 0.0630 kg/ha): 0.0 | Postemergence herbicidal rating SETVI (SETVI (Foxtail, Green); Rate 0.0158 kg/ha): 0.0 | Postemergence herbicidal rating SETVI (SETVI (Foxtail, Green); Rate 0.0315 kg/ha): 0.0 | Postemergence herbicidal rating SETVI (SETVI (Foxtail, Green); Rate 0.0630 kg/ha): 0.0 | Preemergence herbicidal rating GALAP (GALAP (Galium) [5]; rate 0.0156 kg/ha): 0.0 | Preemergence herbicidal rating GALAP (GALAP (Galium) [5]; rate 0.0313 kg/ha): 0.0 | Preemergence herbicidal rating GALAP (GALAP (Galium) [5]; rate 0.0625 kg/ha): 0.0 | Preemergence herbicidal rating GALAP (GALAP (Galium) [5]; rate 0.1250 kg/ha): 6.0 | Preemergence herbicidal rating GALAP (GALAP (Galium) [5]; rate 0.2500 kg/ha): 9.0 | Herbicidal rating CYPIR (CYPIR (Rice Flatsedge); 0.0313 kg/ha): 0.0 | Herbicidal rating CYPIR (CYPIR (Rice Flatsedge); 0.0625 kg/ha): 0.0 | Herbicidal rating CYPIR (CYPIR (Rice Flatsedge); 0.1250 kg/ha): 0.0 | Herbicidal rating CYPIR (CYPIR (Rice Flatsedge); 0.2500 kg/ha): 0.0 | Postemergence herbicidal rating ECHCG (ECHCG (Barnyardgrass); Rate 0.0158 kg/ha): 0.0 | Postemergence herbicidal rating ECHCG (ECHCG (Barnyardgrass); Rate 0.0315 kg/ha): 0.0 | Postemergence herbicidal rating ECHCG (ECHCG (Barnyardgrass); Rate 0.0630 kg/ha): 0.0 | Postemergence herbicidal rating AMBEL (AMBEL (Ragweed, Common); Rate 0.0158 kg/ha): 0.0 | Postemergence herbicidal rating AMBEL (AMBEL (Ragweed, Common); Rate 0.0315 kg/ha): 3.0 | Postemergence herbicidal rating AMBEL (AMBEL (Ragweed, Common); Rate 0.0630 kg/ha): 7.0 | Postemergence herbicidal rating GLXMAW ([6]; Rate 0.0158 kg/ha): 4.5 | Postemergence herbicidal rating GLXMAW ([6]; Rate 0.0315 kg/ha): 5.0 | Postemergence herbicidal rating GLXMAW ([6]; Rate 0.0630 kg/ha): 5.0 | Herbicidal rating CYPSE (CYPSE (Flatsedge) [7]; rate 0.0313 kg/ha): 0.0 | Herbicidal rating CYPSE (CYPSE (Flatsedge) [7]; rate 0.0625 kg/ha): 0.0 | Herbicidal rating CYPSE (CYPSE (Flatsedge) [7]; rate 0.1250 kg/ha): 0.0 | Herbicidal rating CYPSE (CYPSE (Flatsedge) [7]; rate 0.2500 kg/ha): 0.0 | Herbicidal rating CYPSE (CYPSE (Flatsedge) [8]; 0.0313 kg/ha): 0.0 | Herbicidal rating CYPSE (CYPSE (Flatsedge) [8]; 0.0625 kg/ha): 0.0 | Herbicidal rating CYPSE (CYPSE (Flatsedge) [8]; 0.1250 kg/ha): 0.0 | Herbicidal rating CYPSE (CYPSE (Flatsedge) [8]; 0.2500 kg/ha): 0.0 | Preemergence herbicidal rating CASOB (CASOB (Sicklepod) [9]; rate 0.0313 kg/ha): 0.0 | Preemergence herbicidal rating CASOB (CASOB (Sicklepod) [9]; rate 0.0625 kg/ha): 0.0 | Preemergence herbicidal rating CASOB (CASOB (Sicklepod) [9]; rate 0.1250 kg/ha): 2.0 | Preemergence herbicidal rating CASOB (CASOB (Sicklepod) [9]; rate 0.2500 kg/ha): 1.0 | Preemergence herbicidal rating ZEAMX (ZEAMX (Corn, Field); rate 0.0156 kg/ha): 0.0 | Preemergence herbicidal rating ZEAMX (ZEAMX (Corn, Field); rate 0.0313 kg/ha): 0.0 | Preemergence herbicidal rating ZEAMX (ZEAMX (Corn, Field); rate 0.0625 kg/ha): 0.0 | Preemergence herbicidal rating ZEAMX (ZEAMX (Corn, Field); rate 0.1250 kg/ha): 2.0 | Preemergence herbicidal rating ZEAMX (ZEAMX (Corn, Field); rate 0.2500 kg/ha): 5.0

Source: US20020137929A1, “1 - (3-heterocyclylphenyl) isothiourea, -isourea, -guanidine and -amidine herbicidal agents” (Intellectual Property Department, BASF Aktiengesellschaft, priority 1998, published 2002)
